We go through one compound from patent publication US20250059264A1, “METHOD OF TREATING STROKE” (AlaMab Therapeutics, Inc., priority 2023, published 2025).

For assay [1], the system named is rat model of stroke induced by middle cerebral artery occlusion (MCAO). In words: Brain volume (Example 3). The format is in vivo, SD rats. The settings on record: 10 mg/kg (table label) i.v. Bid from 30 min after infarction; 48 h after reperfusion. As for the experimental part:
(§1) The administration of the respective treatments was started 30 minutes after the MCAO procedure of the rats.
(§2) Seventy-two (72) SD rats received behavioral training after adaptive feeding period and before the operation to establish stroke models. The behavioral training included beam-walking, grip and rotarod tests. The experimental rats were then randomly divided into 6 groups according to the body weight, with 12 rats in each test group as described in Table 15.
(§3) The rats were fasted overnight before modeling and were anesthetized with isoflurane. Right middle cerebral artery occlusion (MCAO) was induced in each rat using the intraluminal filament technique to mimic focal cerebral ischemic stroke. After 2 hrs, reperfusion was allowed by removing the occlusion.
(§4) Administration of each treatment was performed 0.5 h after the infarction. The rats were scored by the Longa method at 24-hours post-procedure. The neurological function was evaluated at 24-hr and 48-hr after reperfusion, and was assessed by beam-walking, grip strength, and rotarod tests. At 48 h after reperfusion, the whole brain tissue of all rats was harvested to assess the cerebral infarct area by TTC staining, as well as to measure brain volume and brain water content, two indicators of acute cerebral edema.

Assay [2] has the same test system. In words: Brain water content (Example 3). The format is in vivo, SD rats. The settings on record: 10 mg/kg (table label) i.v. Bid from 30 min after infarction; 48 h after reperfusion. As for the experimental part:
as §1, §2, §3, §4

The test system of assay [3] is mouse model of stroke induced by middle cerebral artery occlusion (MCAO). Description: Rotarod test (Example 1). Format: in vivo, ICR mice. The settings on record: 10 mg/kg i.v. Bid from 30 min after infarction. How it is done: (§5) The administration of the respective treatments was started 30 minutes after the MCAO procedure of the mice.
(§6) Seventy-two (72) ICR mice received behavioral training after adaptive feeding period and before the operation to establish stroke models. The behavioral training included beam-walking and rotarod test. The experimental mice were then randomly divided into 6 groups according to the values of the body weight, with 12 mice in each test group as described in Table 1.
(§7) The mice were fasted overnight before modeling and were anesthetized with isoflurane. Right middle cerebral artery occlusion (MCAO) was induced in mice using the intraluminal filament technique to mimic focal cerebral ischemic stroke. After 1 hr, reperfusion was allowed by removing the occlusion. During the operation, a white light was used to maintain the mouse rectal temperature between 36.5° C.-37.0° C.
(§8) Administration of each treatment was performed 0.5 h after the infarction. The neurological function score was evaluated at 24 hrs and 48 hrs after reperfusion, as was assessed by beam-walking, grip strength, and rotarod tests. At 48 h after reperfusion, the whole brain tissue of all rats was harvested to assess the cerebral infarct area by TTC staining, as well as to measure brain volume and brain water content, two indicators of acute cerebral edema.
A general note: The rotarod test checks motor coordination on a turning rod.

Assay [4] relates to rat model of stroke induced by middle cerebral artery occlusion (MCAO). In words: Grip strength, dosing regimen (Example 4). Format: in vivo, SD rats. As to conditions: 10 mg/kg (table label) i.v. Bid from 30 min after infarction. As for the experimental part: The first administration of the respective treatments was started 30 minutes (Day 1 of study) after the MCAO procedure of the rats. For the butylphthalide group, subsequent doses were administered every day after for 14 days. For the ALMB-0166 test groups, a second dose of the antibody was administered at Day 4 post-stroke (Day 4 of the study). Thirty-six (36) SD rats received behavioral training after adaptive feeding period and before the operation to establish stroke models. The behavioral training included beam-walking, grip and rotarod tests. The experimental rats were then randomly divided into 6 groups according to the body weight, with 6 rats in each test group as described in Table 15. The rats were fasted overnight before modeling and were anesthetized with isoflurane. Right middle cerebral artery occlusion (MCAO) was induced in each rat using the intraluminal filament technique to mimic focal cerebral ischemic stroke. After 2 hrs, reperfusion was allowed by removing the occlusion. Administration of butylphthalide was performed 0.5 hrs after the infarction, and every day after the operation (14 days). Administration of ALMB-0166 and the vehicle treatment was performed at 0.5 hrs and at Day 4 after the operation. The body weight of rats was recorded before the operation (Day 0 of study) and on Days 2, 4, 7, and 11 after the procedure. The rats were scored by the Longa method at Day 1 (24-hours) post-procedure. The neurological function was evaluated at Days 1, 2, 4, 7, and 14 after the procedure, and was assessed by beam-walking, grip strength, and rotarod tests. At Day 14 after reperfusion, the whole brain tissue of all rats was harvested to assess the cerebral infarct area by TTC staining. The total infarct volume was determined, and the infarct volume ratio was calculated by dividing the total infarct volume by the whole brain volume. For calculating the infarct volume rate, the difference in infarct volume ratio between the model group and the corresponding administration group was divided by the infarct volume ratio of the model group.

The subject of assay [5] is mouse model of stroke induced by middle cerebral artery occlusion (MCAO). In words: Cerebral infarct volume by TTC staining, time of treatment (Example 2). The settings on record: 48 h after reperfusion; for Improvement rate of infarction: vs model. Format: in vivo, ICR mice. As for the experimental part: (§9) The administration of 10 mg/kg butylphthalide and 50 mg/kg ALMB-0166 was started 30 minutes, 2 hours, or 6 hours after the MCAO procedure of the mice. Ninety-six (96) ICR mice received behavioral training after adaptive feeding period and before the operation to establish stroke models. The behavioral training included beam-walking and rotarod test. The experimental mice were then randomly divided into 8 groups according to the values of the body weight, with 12 mice in each test group as described in Table 1. The mice were fasted overnight before modeling and were anesthetized with isoflurane. Right middle cerebral artery occlusion (MCAO) was induced in mice using the intraluminal filament technique to mimic focal cerebral ischemic stroke. After 1 hr, reperfusion was allowed by removing the occlusion. Administration of each treatment was performed 0.5 hrs, 2 hrs, or 6 hrs after the infarction. The neurological function score was evaluated at 24 hrs and 48 hrs after reperfusion, as was assessed by beam-walking, grip strength, and rotarod tests. At 48 hrs after reperfusion, the whole brain tissue of all rats was harvested to assess the cerebral infarct area by TTC staining, as well as to measure brain volume and brain water content, two indicators of acute cerebral edema.

The test system is the same in assay [6]. Description: Brain volume (Example 1). Format: in vivo, ICR mice. The settings on record: 10 mg/kg i.v. Bid from 30 min after infarction; 48 h after reperfusion. How it is done:
as §5, §6, §7, §8

Assay [7] has the same test system. In words: Beam-walking test, time of treatment (Example 2). Format: in vivo, ICR mice. How it is done: as §9
The mark [8] stands for this setting: 10 mg/kg i.v. once 0.5 hr after infarction.
[9] abbreviates: 10 mg/kg i.v. once 2 hr after infarction.
Where [10] appears, read: 10 mg/kg i.v. once 6 hr after infarction.

Turning to `CCCCC1OC(=O)c2ccccc21` (centres unmarked) [Butylphthalide], the Brain volume was found to be 1.597 ± 0.11 mL in assay [1] and 0.413 ± 0.03 mL in assay [6]. For the same compound, the Brain water content in assay [2] turned out to be 1282.00 mg. For the same compound, the Brain water ratio in assay [2] was determined as 78.80%. Besides, the “Rotarod test score, Time” value worked out at 216.67 ± 91.22 s in assay [3] (24 h) and 146.50 ± 137.21 s in assay [3] (48 h). Also, the “Grip Strength” value in assay [4] (Day 0) was 504.65 g; in assay [4] (Day 2), 565.99 g; in assay [4] (Day 4) it was 520.36 g; in assay [4] (Day 7), 523.26 g; in assay [4] (Day 14), 585.23 g. For the same compound, the “Cerebral Infarction Volume” value in assay [5] (setting [8]) worked out at 28.56%; in assay [5] (setting [9]), 34.25%; in assay [5] (setting [10]) it was 31.89%. In addition, the “Improvement rate of infarction” value in assay [5] (setting [8]) is given as 33.50%; in assay [5] (setting [9]), 20.25%; in assay [5] (setting [10]), 25.76%. The Beam-walking time was 57.69 ± 3.94 s in assay [7] (10 mg/kg i.v. once 0.5 hr after infarction, 24 h); 51.37 ± 16.46 s in assay [7] (10 mg/kg i.v. once 0.5 hr after infarction, 48 h); 53.12 ± 12.48 s in assay [7] (10 mg/kg i.v. once 2 hr after infarction, 24 h); 52.73 ± 10.98 s in assay [7] (10 mg/kg i.v. once 2 hr after infarction, 48 h); 10.32 s in assay [7] (10 mg/kg i.v. once 6 hr after infarction, 24 h); 58.57 ± 3.23 s in assay [7] (10 mg/kg i.v. once 6 hr after infarction, 48 h).
